Laboratory results taken from patent publication US20100184031A1, “NOVEL ADIPOCYTOKINE VISFATIN/PBEF1 IS AN APOPTOSIS ASSOCIATED FACTOR INDUCED IN MONOCYTES DURING IN VIVO HIV-1 INFECTION” (priority 2007, published 2010).

Key:
[1] = test system: M-tropic R5 HIV lab-strain BaL; test: In vitro infection of PBMC cultures with HIV BaL, p24 ELISA / TCID50; type: cell-based
[2] = test system: M-tropic R5 HIV lab-strain BaL; test: In vitro infection of monocyte-derived macrophages (MDM) with HIV BaL, p24 ELISA / TCID50; type: cell-based; settings: MDM cultures
Description: (§1) For in vitro infection experiments, monocytes were obtained from buffy coats of healthy donors of the Blood Transfusion Center of Antwerp (Rode Kruis Vlaanderen, Belgium) by counterflow elutriation, as described previously (Van Herrewege et al., 2002). These cells were then differentiated to monocyte-derived macrophages (MDM) during seven days in RPMI 1640 medium (Bio-Whittaker, Verviers, Belgium) supplemented with 10% bovine fetal calf serum (Biochrom, Berlin, Germany), penicillin (100 U/ml) and streptomycin (100 μg/ml) (Roche Diagnostics, Mannheim, Germany) and 40 ng/ml M-CSF (PeproTech, London, United Kingdom) at 37° C. and 5.0% CO2. Half the medium was replaced after four days. Cells were then harvested and used for experiments in the same medium (without M-CSF).
(§2) For infection experiments, MDM were plated in 96-well plates at 7.5×10^5 cells/ml and pre-treated with recombinant visfatin (200 ng/ml) for 1 hour at 37° C. and 5.0% CO2. Then, virus was added in six-fold and incubated for 2 hours, again at 37° C. and 5.0% CO2. Cells were then washed 3× to remove unbound virus and incubated for 14 days. Productive infection was monitored via an in-house-developed p24 antigen ELISA, as described elsewhere (Beirnaert et al., 1998).
This viral infectivity can be quantified by calculating the TCID50 (Tissue Culture Infectious Dose 50%, i.e., the dose of virus that has a 50% chance of infecting a cell culture) values of the viral stocks. Addition of visfatin reduces the TCID50 values of BaL by approximately one log in both PBMC and MDM cultures, signifying a 90% reduction in viral infectivity (FIG. 7, Panel A).

[3] = test system: T-tropic X4 HIV lab-strain IIIB (=HxB2); test: In vitro infection with X4 HIV lab-strain IIIB, viral infectivity (TCID50); type: cell-based; settings: same experiment as for BaL
Experimental: as §2
This signifies that by selectively inhibiting R5 and not X4 HIV, visfatin contributes to the HIV co-receptor switch seen in ca. 50% of all patients in which the co-receptor usage of the dominant quasispecies within the patient switches from the moderately virulent R5 to the more aggressive X4, leading to increased progression to AIDS.

[4] = test system: X4 strain of the 968 clone (968-1); test: In vitro infection of MDM with clinical isolate 968-1 (X4), viral titer (TCID50); type: cell-based, HIV
Description: as §1, §2
R5 and X4 strains of the 968 viral clone were isolated from one patient, and differ only in co-receptor usage.

[5] = PBMC cultures, 200 ng/ml PBEF1, 14 days of culture
[6] = 200 ng/ml PBEF1, 14 days of culture

| Compound | reduction in viral infectivity [1, 5] [%] | reduction of TCID50 value of BaL [1, 5] | viral infectivity (productive infection, p24 secretion) ([1]; activated PBMC cultures, recombinant visfatin added prior to infection with BaL) | reduction in viral infectivity [2, 6] [%] | reduction of TCID50 value of BaL [2, 6] | viral infectivity (productive infection, p24 secretion) ([2]; recombinant visfatin (200 ng/ml) added prior to infection with BaL) | effect on viral infectivity of X4 strain IIIB [3] | viral titer of X4 clinical isolate in MDM [4, 6] | productive infection of MDM by X4 clinical isolate 968-1 ([4]; strain incapable of infecting untreated MDM) | infectivity of HIVBaL (TCID50) ([1]; PBMC cultures, 100 μM nicotinamide mononucleotide, 14 days of culture) |
| --- | --- | --- | --- | --- | --- | --- | --- | --- | --- | --- |
| visfatin: Recombinant visfatin (PBEF1, nicotinamide phosphoribosyltransferase) protein obtained from PeproTech | 90 | approximately one | decreases the viral infectivity | 90 | approximately one | decreases the viral infectivity | does not mediate this effect | increased the viral titer | allowed the 968-1 clone to establish a productive infection |  |
| NC(=O)c1ccc[n+]([C@@H]2O[C@H](COP(=O)([O-])O)[C@@H](O)[C@H]2O)c1 [NMN, nicotinamide mononucleotide, reference compound] |  |  |  |  |  |  |  |  |  | reduces the infectivity |
